Measured values published in article PMC4911353, “Pharmacologic Inhibition of Host Phosphodiesterase-4 Improves Isoniazid-Mediated Clearance of Mycobacterium tuberculosis” (Frontiers in Immunology, 2016).
Where two headings read alike, the source gives them in different places.

Legend:
[1] = set-up: method as in PMID 26981575; details: rabbits, cited from earlier work
lung granulomas = experiment: Histology and morphometric measurement of lung granulomas in Mtb-infected mice; type: in vivo; details: 28 days postinfection (14 days of treatment), histology
Protocol: Formalin-fixed lung tissues of Mtb-infected mice were paraffin-embedded, cut into […] sections, and stained with hematoxylin and eosin (H&E) or acid fast staining by Ziehl–Neelsen (ZN) method to visualize host cells and Mtb, respectively (IDEXX-RADIL Laboratories Inc., MO, USA) as described in Ref. ([11]). Stained sections were photographed in a Nikon Microphot-FX photomicrographic system and analyzed with NIS-Elements F3.0 software (Nikon Instruments Inc., NY, USA). Lung granuloma size was morphometrically measured using PathScan Enabler IV scanner (Meyer Instruments, Houston, TX, USA) and SigmaScan Pro software (Systat Software, Inc., CA, USA). Histopathologic analysis and morphometry were performed by an experienced pathologist blinded to the sample identity.

[2] = system: Mycobacterium tuberculosis CDC1551; type: in vivo; details: in vivo, 50 mg/kg
[3] = Plasma pharmacokinetics of CC-11050 in mice after a single oral gavage (LC-MS/MS); type: in vivo; details: for Plasma concentration of CC-11050: mean ± SD
Protocol: The PDE4i, CC-11050 (N-[2-[(1S)-1-(3-ethoxy-4-methoxyphenyl)-2-(methylsulfonyl) ethyl]-2,3-dihydro-3-oxo-1H-isoindol-4-yl]-(9Cl) cyclopropanecarboxamide) has an empirical formula of C24H28N2O6S with one chiral center (Figure S1A in Supplementary Material). Uninfected mice (n = 3 per group) were treated with 5, 25, or 50 mg/kg of CC-11050 by oral gavage. In another experiment, mice (n = 3) were treated with 50 mg/kg of CC-11050 plus 50 mg/kg of INH. A group of mice (n = 3) without treatment were included as negative control. Venous blood was collected at 1, 2, 5, 8, and 24 h after a single gavage administration of CC-11050, with or without INH. Time-matched blood samples were also collected from untreated mice. The animals were gavaged after overnight fasting and fed soon after gavage. Plasma was collected by centrifugation of blood samples at 1,100× g for 10 min at 10°C and used for LC-MS/MS analysis.
The standard curve and quality control for CC-11050 were prepared in mouse plasma diluted 1:1 with Sorenson’s Citrate Buffer (25 mM; pH 1.5). Internal standard was prepared with ^13CD3-CC-11050 and mixed with the standard, quality control, or test samples at 4:1:1 (^13CD3-CC-11050:mouse plasma:Sorenson’s Citrate Buffer, vol/vol/vol) ratio. The mix was centrifuged at 4,000 rpm for 10 min at room temperature, and the supernatant was transferred to a 96-well assay plate. LC-MS/MS was performed using a Sciex API 4000 triple quadrupole mass spectrometer (Sciex, Division of MDS Inc., Canada) coupled to a Shimadzu HPLC system (Shimadzu Scientific Instruments, MD, USA). A Phenomenex Gemini column (5 μm, 2.0 mm × 50 mm; Phenomenex, CA, USA) was used for chromatography with 0.1% formic acid in water (mobile phase A) and 0.1% formic acid in acetonitrile (mobile phase B). The parameters used were 0 min for 10%B, 0.0–2.0 min for 10–75%B, 2.1–3.0 min for 95%B, and 3.05–4.0 min for 10%B. For mass spectrometric detection, a positive ion mode with turbo spray (ion source temperature of 450°C) and a dwell time of 100 ms was used. Analytes were quantified using multiple reactions monitoring (MRM) at the following transitions: mass-to-charge ratio 473.1–178.1 and 477.1–182.1 m/z for CC-11050 and its internal standard, respectively. Peak area ratios of the analyte to its internal standard versus analyte concentration, represented as quadratic regression plots, were derived with 1/x^2 weighting. Watson LIMS™ software was used to determine the pharmacokinetic parameters (Thermo Fisher, PA, USA). Peak plasma concentration (Cmax) and corresponding time (Tmax) were calculated from raw data. Area under the plasma concentration-time curve (AUC) was determined by linear/linear-log trapezoidal rule of non-compartmental model using data from time 0 and the last measurable time point (AUClast). All statistics were performed with Watson LIMS™ software. Plasma concentrations below the limit of quantitation (BLOQ) were treated as 0 for calculation.

Pde4 = experiment: qPCR of host Pde4 gene expression in Mtb-infected mouse lungs; type: in vivo, mice; details: 14 days of treatment (28 days postinfection)
Protocol: Total lung RNA (200 ng) was reverse-transcribed using Sprint RT kit (Clontech, CA, USA); 10 ng of cDNA were used for quantitative real-time PCR (qPCR), with Brilliant II SYBR master mix (Agilent Technologies, CA, USA) and gene-specific primers in a Stratagene Mx3005P instrument (Agilent Technologies, CA, USA). ROX was included in each reaction as an internal control. The qPCR assay was performed using four mouse samples in duplicate per group; the data were analyzed using MxPro Software (Agilent Technologies, CA, USA). Transcript levels of Gapdh were used as a reference against the test genes. Fold change in gene expression was calculated using the formula 2^−ΔΔCt, where ΔCt is the difference in threshold cycle (Ct) between the target gene and Gapdh; and ΔΔCt is the […] between untreated and CC-11050-treated samples. Primers were designed based on nucleotide sequences obtained from PrimerBank.^3

[4] = single oral dose 50 mg/kg CC-11050 + 50 mg/kg INH
[5] = single oral dose 50 mg/kg CC-11050 only

Question: Which Cmax ([1]; 50 mg/kg) does the source give for CCOc1cc([C@@H](CS(C)(=O)=O)N2Cc3cccc(NC(=O)C4CC4)c3C2=O)ccc1OC [CC-11050, N-[2-[(1S)-1-(3-ethoxy-4-methoxyphenyl)-2-(methylsulfonyl)ethyl]-2,3-dihydro-3-oxo-1H-isoindol-4-yl]-(9Cl) cyclopropanecarboxamide] here?
Answer: 163 ng/mL

Question: What about the Tmax ([1]; 50 mg/kg) of the same compound?
Answer: 4 h

Question: What about the “Effect of INH on the pharmacokinetics of CC-11050” value [1] of the same compound?
Answer: no effects

Question: And the “Impact on size and structure of lung lesions” value (lung granulomas)?
Answer: no significant impact

Question: What about the “Difference in number of lung CFUs versus untreated mice” value [2] of the same compound?
Answer: No significant difference

Question: What about the Lung bacillary load ([2]; po) of the same compound?
Answer: about 5.5 log10

Question: What about the AUClast ([3]; single oral dose 5 mg/kg) of the same compound?
Answer: 1,080 ng × h/ml

Question: And the AUClast ([3]; single oral dose 25 mg/kg)?
Answer: 2,800 ng × h/ml

Question: And the AUClast [3, 4]?
Answer: 13,900 ng × h/ml

Question: What about the Cmax [3, 4] of the same compound?
Answer: 1,610 ng/ml

Question: What about the Tmax [3, 4] of the same compound?
Answer: 5.0 h

Question: What about the “Plasma concentration of CC-11050” value ([3]; single oral dose 50 mg/kg CC-11050 + 50 mg/kg INH, 1 h) of the same compound?
Answer: 905.35 ± 594.23 ng/mL

Question: What about the “Plasma concentration of CC-11050” value ([3]; single oral dose 50 mg/kg CC-11050 + 50 mg/kg INH, 2 h) of the same compound?
Answer: 1,309.39 ± 214.08 ng/ml

Question: And the “Plasma concentration of CC-11050” value ([3]; single oral dose 50 mg/kg CC-11050 + 50 mg/kg INH, 5 h)?
Answer: 1,609.18 ± 167.2 ng/ml

Question: What about the “Plasma concentration of CC-11050” value ([3]; single oral dose 50 mg/kg CC-11050 + 50 mg/kg INH, 8 h) of the same compound?
Answer: 1,271.73 ± 249.18 ng/ml

Question: And the “Plasma concentration of CC-11050” value ([3]; single oral dose 50 mg/kg CC-11050 + 50 mg/kg INH, 24 h)?
Answer: 4.96 ± 1.85 ng/mL

Question: And the AUClast [3, 5]?
Answer: 10,200 ng × h/ml

Question: What about the Cmax [3, 5] of the same compound?
Answer: 1,410 ng/ml

Question: And the Tmax [3, 5]?
Answer: 2.0 h

Question: What about the “Plasma concentration of CC-11050” value ([3]; single oral dose 50 mg/kg CC-11050 only, 1 h) of the same compound?
Answer: 1,331.6 ± 136.97 ng/ml

Question: And the “Plasma concentration of CC-11050” value ([3]; single oral dose 50 mg/kg CC-11050 only, 2 h)?
Answer: 1,409.47 ± 140.85 ng/ml

Question: And the “Plasma concentration of CC-11050” value ([3]; single oral dose 50 mg/kg CC-11050 only, 5 h)?
Answer: 948.85 ± 128.7 ng/mL

Question: And the “Plasma concentration of CC-11050” value ([3]; single oral dose 50 mg/kg CC-11050 only, 8 h)?
Answer: 820.6 ± 265.98 ng/mL

Question: What about the “Plasma concentration of CC-11050” value ([3]; single oral dose 50 mg/kg CC-11050 only, 24 h) of the same compound?
Answer: 1.27 ± 1.1 ng/mL

Question: And the “Time to peak plasma concentration (Tmax)” value ([3]; single oral dose, each of three dose levels 5, 25, 50 mg/kg)?
Answer: 1 to 2 h

Question: And the “Pde4A expression in lungs versus Mtb-infected untreated” value (Pde4)?
Answer: No significant change

Question: And the “Pde4C expression in lungs versus Mtb-infected untreated” value (Pde4)?
Answer: No significant change

Question: And the “Pde4D expression in lungs versus Mtb-infected untreated” value (Pde4; 50 mg/kg, P = 0.0037)?
Answer: significantly reduced

Question: And the “Pde4Bi3 (Pde4B isoform 3) expression in lungs versus Mtb-infected untreated” value (Pde4; 50 mg/kg, P = 0.015)?
Answer: significantly reduced
